Measured values published in ChEMBL document CHEMBL2401678, “Synthesis and changes in affinity for NOP and opioid receptors of novel hexapeptides containing β(2)-tryptophan analogues” (Bioorg Med Chem Lett, 2013).
The source made the active and inactive calls. No cut-off for these calls is given here. *1 amine or outer side, *2 acyl side, *3 side chain or, on linkers, in order; H or OH if unused. Where a SMILES comes first, the peptide text is derived from it. [ ]: non-standard residue; d: D form. X2 = COc1ccc2[nH]cc([C@H](CN[*:1])C(=O)[*:2])c2c1; X1 = Cn1cc([C@H](CN[*:1])C(=O)[*:2])c2ccccc21

Columns and labels:
[1] = target: Nociceptin receptor (Rattus norvegicus) (UniProt P35370); test: Activity at Wistar rat NOP receptor assessed as inhibition of low-frequency electrically-stimulated vas deferens contraction at 1 x 10^-6 M relative to control
Sequence of Nociceptin receptor (Rattus norvegicus) (P35370 whole entry): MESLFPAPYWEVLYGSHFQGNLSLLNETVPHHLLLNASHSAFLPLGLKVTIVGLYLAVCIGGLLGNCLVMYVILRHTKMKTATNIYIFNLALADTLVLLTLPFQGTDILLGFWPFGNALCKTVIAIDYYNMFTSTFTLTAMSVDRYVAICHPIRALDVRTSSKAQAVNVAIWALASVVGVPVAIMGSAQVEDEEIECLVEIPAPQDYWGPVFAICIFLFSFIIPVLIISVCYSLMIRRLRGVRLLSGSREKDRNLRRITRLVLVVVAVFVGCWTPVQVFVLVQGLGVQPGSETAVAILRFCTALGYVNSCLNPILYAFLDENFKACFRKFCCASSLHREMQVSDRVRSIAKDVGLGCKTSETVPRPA

[2] = target: T1, Nociceptin/mu opioid receptor (Rattus norvegicus, UniProt P33535+P35370); test: Activity at Wistar rat NOP/mu opioid receptor assessed as inhibition of low-frequency electrically-stimulated vas deferens contraction; type: protein assay
[3] = target: Mu-type opioid receptor (Rattus norvegicus) (UniProt P33535); test: Activity at Wistar rat mu opioid receptor assessed as inhibition of low-frequency electrically-stimulated vas deferens contraction up to 1 x 10^-5 M in presence of naloxone benzoylhydrazone
Sequence of Mu-type opioid receptor (Rattus norvegicus) (P33535 whole entry): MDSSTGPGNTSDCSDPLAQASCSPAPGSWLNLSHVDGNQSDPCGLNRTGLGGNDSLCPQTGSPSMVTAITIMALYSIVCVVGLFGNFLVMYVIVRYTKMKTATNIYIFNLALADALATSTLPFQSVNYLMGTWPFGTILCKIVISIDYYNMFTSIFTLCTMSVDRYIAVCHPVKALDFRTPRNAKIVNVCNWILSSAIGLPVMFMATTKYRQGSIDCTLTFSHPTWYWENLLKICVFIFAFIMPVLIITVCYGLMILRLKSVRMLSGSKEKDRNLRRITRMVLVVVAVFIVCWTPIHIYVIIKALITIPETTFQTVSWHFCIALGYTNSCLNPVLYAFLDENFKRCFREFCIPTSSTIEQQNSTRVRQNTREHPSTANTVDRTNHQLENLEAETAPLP

[4] = target: T2, Nociceptin/mu opioid receptor (Rattus norvegicus) (UniProt P33535+P35370); test: Activity at Wistar rat NOP/mu opioid receptor assessed as inhibition of low-frequency electrically-stimulated vas deferens contraction at 1 x 10^-5 M in presence of naloxone relative to control; type: protein assay
T2 sequence (P33535 whole entry, looked up): as the sequence (P33535 whole entry) above
T2 sequence (P35370 whole entry, looked up): as the sequence (P35370 whole entry) above

[5] = target: T1, Nociceptin/mu opioid receptor; test: Activity at Wistar rat NOP/mu opioid receptor assessed as inhibition of low-frequency electrically-stimulated vas deferens contraction in presence of naloxone; type: protein assay
[6] = target: Mu-type opioid receptor (Rattus norvegicus) (UniProt P33535); test: Activity at Wistar rat mu opioid receptor assessed as inhibition of low-frequency electrically-stimulated vas deferens contraction at 1 x 10^-6 to 1 x 10^-5 M
[7] = target: T2, Nociceptin/mu opioid receptor (Rattus norvegicus); test: Activity at Wistar rat NOP/mu opioid receptor assessed as inhibition of low-frequency electrically-stimulated vas deferens contraction at 1 x 10^-5 M relative to control; type: protein assay
Mu-type opioid receptor [8] = target: T3, Mu-type opioid receptor (Rattus norvegicus, UniProt P33535); test: Activity at Wistar rat mu opioid receptor assessed as inhibition of low-frequency electrically-stimulated vas deferens contraction in presence of naloxone
T3 sequence (P33535 whole entry): as the sequence (P33535 whole entry) above

[9] = target: Mu-type opioid receptor (Rattus norvegicus) (UniProt P33535); test: Activity at Wistar rat mu opioid receptor assessed as inhibition of low-frequency electrically-stimulated vas deferens contraction at 1 x 10^-5 M relative to control
[10] = target: Mu-type opioid receptor (Rattus norvegicus) (UniProt P33535); test: Activity at Wistar rat mu opioid receptor assessed as inhibition of low-frequency electrically-stimulated vas deferens contraction at 1 x 10^-11 to […] in presence of naloxone
[11] = target: Mu-type opioid receptor (Rattus norvegicus) (UniProt P33535); test: Activity at Wistar rat mu opioid receptor assessed as inhibition of low-frequency electrically-stimulated vas deferens contraction at 1 x 10^-5 M in presence of naloxone relative to control
Mu-type opioid receptor [12] = target: T3, Mu-type opioid receptor; test: Activity at Wistar rat mu opioid receptor assessed as inhibition of low-frequency electrically-stimulated vas deferens contraction
[13] = target: Mu-type opioid receptor (Rattus norvegicus) (UniProt P33535); test: Activity at Wistar rat mu opioid receptor assessed as inhibition of low-frequency electrically-stimulated vas deferens contraction at 1 x 10^-6 to 1 x 10^-5 M in presence of naloxone benzoylhydrazone
[14] = target: Nociceptin receptor (Rattus norvegicus) (UniProt P35370); test: Activity at Wistar rat NOP receptor assessed as inhibition of low-frequency electrically-stimulated vas deferens contraction at 1 x 10^-6 M in presence of naloxone relative to control
Nociceptin receptor [15] = target: T4, Nociceptin receptor (Rattus norvegicus, UniProt P35370); test: Activity at Wistar rat NOP receptor assessed as inhibition of low-frequency electrically-stimulated vas deferens contraction in presence of naloxone
T4 sequence (P35370 whole entry): as the sequence (P35370 whole entry) above

Nociceptin receptor [16] = target: T4, Nociceptin receptor; test: Activity at Wistar rat NOP receptor assessed as inhibition of low-frequency electrically-stimulated vas deferens contraction
[17] = target: Nociceptin receptor (Rattus norvegicus) (UniProt P35370); test: Activity at Wistar rat NOP receptor assessed as inhibition of low-frequency electrically-stimulated vas deferens contraction at 1 x 10^-11 to 1 x 10^-5 M in presence of naloxone
[18] = target: Nociceptin receptor (Rattus norvegicus) (UniProt P35370); test: Activity at Wistar rat NOP receptor assessed as inhibition of low-frequency electrically-stimulated vas deferens contraction at 1 x 10^-6 M in presence of naloxone benzoylhydrazone
[19] = target: T2, Nociceptin/mu opioid receptor (Rattus norvegicus); test: Activity at Wistar rat NOP/mu opioid receptor assessed as inhibition of low-frequency electrically-stimulated vas deferens contraction at 1 x 10^-5 M in presence of naloxone; type: protein assay
[20] = target: T2, Nociceptin/mu opioid receptor (Rattus norvegicus); test: Activity at Wistar rat NOP/mu opioid receptor assessed as inhibition of low-frequency electrically-stimulated vas deferens contraction at 1 x 10^-5 M in presence of naloxone benzoylhydrazone; type: protein assay

## C[C@H](NC(=O)CNC(=O)[C@@H](NC(=O)[C@H](Cc1ccccc1)NC(=O)CNC(=O)CNC(=O)[C@@H](N)Cc1ccccc1)[C@@H](C)O)C(=O)N[C@@H](CCCNC(=N)N)C(=O)N[C@@H](CCCCN)C(=O)N[C@@H](CO)C(=O)N[C@@H](C)C(=O)N[C@@H](CCCNC(=N)N)C(=O)N[C@@H](CCCCN)C(N)=O
[1]
  Emax: -73%

## COc1ccc2[nH]cc([C@H](CNC(=O)[C@H](CCSC)NC(=O)[C@H](Cc3ccccc3)NC(=O)[C@H](CCCNC(=N)N)NC(C)=O)C(=O)N[C@@H](CCSC)C(=O)N[C@@H](CCCCN)C(N)=O)c2c1 (Ac-RFM[X2]MK-NH2)
[2]
  pEC50: 5.78
[3]
  inhibition: inactive
[4]
  Emax: -14%
[5]
  pEC50: 6.26
[6]
  inhibition: Active
[7]
  Emax: -34%

## Ac-RFMWMK-NH2
Mu-type opioid receptor [8]
  EC50: 1150 nM
[9]
  Emax: -52%
[10]
  inhibition: inactive
[11]
  Emax: -14%
Mu-type opioid receptor [12]
  EC50: 1020 nM
[13]
  inhibition: inactive

## COc1ccc2[nH]cc([C@H](CNC(=O)[C@H](CCCNC(=N)N)NC(=O)[C@H](Cc3ccc(O)cc3)NC(=O)[C@H](Cc3ccc(O)cc3)NC(=O)[C@H](CCCNC(=N)N)NC(C)=O)C(=O)N[C@@H](CCCCN)C(N)=O)c2c1 (Ac-RYYR[X2]K-NH2)
[14]
  Emax: -12%
[1]
  Emax: -52%
Nociceptin receptor [15]
  EC50: 1660 nM
Nociceptin receptor [16]
  EC50: 1410 nM
[17]
  inhibition: inactive

## Ac-RYYRWK-NH2
[14]
  Emax: -31%
[1]
  Emax: -36%
Nociceptin receptor [15]
  EC50: 6.17 nM
[18]
  inhibition: inactive
Nociceptin receptor [16]
  EC50: 15.8 nM

## CSCC[C@H](NC(=O)[C@H](Cc1ccccc1)NC(=O)[C@H](CCCNC(=N)N)NC(C)=O)C(=O)NC[C@H](C(=O)N[C@@H](CCSC)C(=O)N[C@@H](CCCCN)C(N)=O)c1cn(C)c2ccccc12 (Ac-RFM[X1]MK-NH2)
Mu-type opioid receptor [8]
  EC50: 1620 nM
[9]
  Emax: -50%
[10]
  inhibition: inactive
[11]
  Emax: -15%
Mu-type opioid receptor [12]
  EC50: 1230 nM
[13]
  inhibition: inactive

## CC(=O)N[C@@H](CCCNC(=N)N)C(=O)N[C@@H](Cc1ccc(O)cc1)C(=O)N[C@@H](Cc1ccc(O)cc1)C(=O)N[C@@H](CCCNC(=N)N)C(=O)NC[C@H](C(=O)N[C@@H](CCCCN)C(N)=O)c1cn(C)c2ccccc12 (Ac-RYYR[X1]K-NH2)
[2]
  pEC50: 6.5
[4]
  Emax: -17%
[19]
  inhibition: Active
[5]
  pEC50: 6.21
[20]
  inhibition: inactive
[7]
  Emax: -36%
